Where two headings read alike, the source gives them in different places.
Columns and labels:
MCF-7 = experiment: cells; assay type: cell-based; settings: Homo sapiens, MCF7, read-out: IC50 MCF-7
MCF7-ADR [1] = system: MCF7-ADR
MCF7-ADR [2] = experiment: cells; settings: Homo sapiens, NCI/ADR-RES, read-out: IC50 MCF7-ADR

Q: `COc1cc2c(c(OC)c1OC)-c1ccc(OC)c(=O)cc1C(=O)CC2` [Compound Ib, Colchicone] was tested. Which IC50 (MCF-7) did it give?
A: 23 nM

Q: How did the MCF7-ADR/MCF7 (MCF7-ADR [1]; ratio of IC50 resistant to normal cells) turn out when `COc1cc2c(c(OC)c1OC)-c1ccc(OC)c(=O)cc1[C@@H](NC(C)=O)CC2` [Colchicine] was run?
A: 6,600

Q: For `CC(=O)O[C@H]1C(=O)[C@@]2(C)[C@H]([C@H](OC(=O)c3ccccc3)[C@]3(O)C[C@H](OC(=O)[C@H](O)[C@@H](NC(=O)c4ccccc4)c4ccccc4)C(C)=C1C3(C)C)[C@]1(OC(C)=O)CO[C@@H]1C[C@@H]2O` [Taxol], which MCF7-ADR/MCF7 (MCF7-ADR [1]; human, mcf7-adr / mcf7 cells) is on record?
A: 1,043

Q: And the IC50 (MCF7-ADR [2])?
A: 2400 nM

Q: What about the IC50 (MCF-7) of the same molecule?
A: 2.3 nM

Q: Which IC50 (MCF-7) does the source give for `COc1cc2c(c(OC)c1OC)-c1ccc(SC)c(=O)cc1C(=O)CC2` [Compound Ia, Thiocolchicone] here?
A: 6.2 nM

Q: Which IC50 (MCF-7) does the source give for `COc1cc2c(c(OC)c1OC)-c1ccc(SC)c(=O)cc1C1=Nc3cc(C(C)(C)C)cc(C(C)(C)C)c3OC1C2` (stereo not shown) [Compound IIa] here?
A: 17 nM

From patent US6080739A (priority 1996, dated 2000)
